Counter-ions that a name gives are not always drawn.
How the values were obtained:
[1] = tested on: thyroparathyroidectomized (TPTX) rats; assay: PTH-induced hypercalcemia in the TPTX rat model of bone resorption; assay type: in vivo, rat (male Sprague Dawley); conditions: PTH treated TPTX rats; s.c. twice at 30 mg/kg, at time 0 and 3 h after start of PTH infusion; serum collected at 6 hours
From the text: 3) Pharmacological Testing: PTH-Induced Hypercalcemia in the TPTX Rat Model of Bone Resorption
In this in vivo model a stimulation of bone resorption is induced in thyroparathyroidectomized (TPTX) rats by the infusion of parathyroid hormone (PTH). The changes in bone resorption are monitored by measuring the serum calcium concentration which is directly related to the extent of bone resorption.
Male Sprague Dawley rats (OFA-IFFA CREDO, France) weighting 150-200 g were thyroparathyroidectomized by the supplier. The rats were allowed free access to a standard commercial pelleted diet containing 7 g Ca/kg (UAR) and Eau de Volvic water. The success of thyroparathyroidectomy was tested by measuring serum calcium concentrations 8 days after operation in overnight fasted animals. Rats were considered as TPTX when the serum calcium level was <80 mg/l.
For treatment with PTH, rat PTH(1-34) (Bachem) was dissolved in 0.15 M sodium chloride solution containing 2% Cys-HCl and delivered via osmotic minipumps (ALZET 2001D) at 200 pmol/kg/h. […]
Serum total calcium concentrations (=calcemia) were measured colorimetrically (Ciba-Corning) using a IEMS Labsystems microplate reader at 540 nm. The differences between the mean values of calcemia in the groups were analysed for variance and by Dunnett's test. The activity of the test compound was calculated as % effect according to the formula: [formula]

melting point [°C]	Structure (SMILES)	% effect (on calcemia = serum total calcium concentration) [1] [%]
	CC(C)OC(=O)[C@H](CNC(=O)c1ccc(CCC(=O)NC2=NCCCN2)cc1)NC(=O)OCC12CC3CC(CC(C3)C1)C2 [formula IIc, (2S)-2-(Adamantan-1-ylmethoxycarbonylamino)-3-(4-(2-(1,4,5,6-tetrahydropyrimidin-2-ylcarbamoyl)ethyl)benzoylamino)propionic Acid Isopropyl Ester Hydrochloride]	−97
208 to 210	CC(C)OC(=O)[C@H](CNC(=O)c1ccc(CCC(=O)NC2=NCCCN2)cc1)NC(=O)OCC12CC3CC(CC(C3)C1)C2 (as salt: hydrochloride) [formula IIc, (2S)-2-(Adamantan-1-ylmethoxycarbonylamino)-3-(4-(2-(1,4,5,6-tetrahydropyrimidin-2-ylcarbamoyl)ethyl)benzoylamino)propionic Acid Isopropyl Ester Hydrochloride]	

Source: US6867213B2, “(2S)-2-(adamantan-1-ylmethoxycarbonylamino)-3-(4-(2-(1,4,5,6-tetrhydropyrimidin-2-ylcarbamoyl)ethyl)benzoylamino)propionic acid isopropyl ester, its preparation and its use” (Aventis Pharma Deutschland GmbH, priority 2000, dated 2005)
